Assay results published in patent publication US10039749B1, “Substituted pyrazole derivatives” (KING SAUD UNIVERSITY, priority 2018, dated 2018).
Like-named read-outs stand apart in the source and are kept apart here. Marks after values point to notes of the source that are not given here.

Assays:
[1] = test system: Ovarian subpanel tumor cell lines; assay: In vitro anticancer screening, five concentration levels, ovarian subpanel; format: cell-based, human
Experimental: (§1) Anticancer evaluation of the newly synthesized compound was performed by a screening in vitro with 60 human cell lines for primary anticancer screening, representing leukemia, melanoma and cancers of the lung, colon, brain, ovary, breast, prostate and kidney. The screening was a two-stage process, beginning with the evaluation of all compounds against the 60 cell lines at a single-dose of 10 μM. […] Therefore this compound passed on to further evaluation at five concentration levels ranging from 0.01 μM to 100 μM.

[2] = test system: Leukemia subpanel tumor cell lines; assay: In vitro anticancer screening, five concentration levels, leukemia subpanel; format: cell-based, human
Experimental: as §1

60 human cell lines = assay: In vitro anticancer screening, full panel; format: cell-based; details: for GI50: Homo sapiens, read-out: GI50 MG-MID (full panel mean-graph midpoint)
Experimental: as §1

[3] = test system: Breast subpanel tumor cell lines; assay: In vitro anticancer screening, five concentration levels, breast subpanel; format: cell-based, human
Experimental: as §1

[4] = test system: DENA-induced liver cancer in rats; assay: Histopathological examination of rat liver sections; format: in vivo; details: H&E staining
Excerpt: For the histopathological examination, the animals were euthanized by decapitation and their livers were rapidly excised, weighed, and washed with saline. Portions of the livers were fixed in 10% formalin in saline, embedded in paraffin wax, serially sectioned, and stained. A standard method of hematoxylin and eosin (H&E) staining was also used.

Sprague-Dawley rats = assay: In vivo acute toxicity (LD50); design: species or system rat
Experimental: (§2) Adult male Sprague-Dawley rats (180±20 g, body weight), were purchased from the animal house of the National Research Centre, Egypt. They were maintained for 1 week under environmentally controlled conditions (constant temperature, 25-27° C., with 12-hour light/dark cycles) for 1 week prior to starting the experiments. The […] were housed with 10 animals per cage, and were provided with tap water and commercial diets.
Acute toxicity of the target compound was determined in vivo according to previously reported methods in the literature. Briefly, animals were divided into groups of 10 rats each, and administered single intravenous (IV) doses, graded ranging from 0 to 1200 μg/kg, of the synthesized compound. Control animals received vehicle alone (dimethyl sulfoxide, DMSO).
The mortality of the animals was monitored for up to 1 month posttreatment. […] Acute toxicity was considered by the in vivo assay.

[5] = test system: CNS subpanel tumor cell lines; assay: In vitro anticancer screening, five concentration levels, CNS subpanel; format: cell-based, human
Experimental: as §1

[6] = test system: Melanoma subpanel tumor cell lines; assay: In vitro anticancer screening, five concentration levels, melanoma subpanel; format: cell-based, human
Experimental: as §1

[7] = test system: Colon subpanel tumor cell lines; assay: In vitro anticancer screening, five concentration levels, colon subpanel; format: cell-based, human
Experimental: as §1

[8] = test system: Prostate subpanel tumor cell lines; assay: In vitro anticancer screening, five concentration levels, prostate subpanel; format: cell-based, human
Experimental: as §1

[9] = test system: Lung subpanel tumor cell lines; assay: In vitro anticancer screening, five concentration levels, lung subpanel; format: cell-based, human
Experimental: as §1

[10] = test system: Renal subpanel tumor cell lines; assay: In vitro anticancer screening, five concentration levels, renal subpanel; format: cell-based, human
Experimental: as §1

[11] = test system: DENA-induced liver cancer in rats; assay: Liver function in DENA-induced liver cancer in rats; format: in vivo, rat; details: for ALP / ALT / AST / Bili (total bilirubin): serum, mean ± SE
Experimental: as §2
Diethylnitrosamine (DENA) and carbon tetrachloride (CCl4) were purchased from Sigma-Aldrich Chemical Corp., (St. Louis, Mo., USA). The DENA was dissolved in normal saline and injected as a single dose (200 mg/kg, intraperitoneally, i.p.) to initiate hepatic carcinogenesis. The CCl4 was administered as a single dose (2 ml/kg) by gavage as a 1:1 dilution in corn oil to stimulate liver cell proliferation and regeneration. The aspartate transaminase (AST), alanine transaminase (ALT), alkaline phosphatase (ALP), and total bilirubin (Bili) kits were obtained from BioMérieux (France).
Adult male Sprague-Dawley rats were divided into groups of eight animals each. Group 1 rats (untreated control) were fed a standard diet and given water throughout the experiment. Group 2 rats (treated with DENA) were injected with a single dose of DENA (200 mg/kg, i.p.), and 2 weeks later received a single dose of CCl4 (2 ml/kg) by gavage as 1:1 dilution in corn oil. Group 3 rats (treated with DENA and target compound) consisted of rats that were treated as the rats in Group 2, but also were treated with target compound administered IV at a dose that was 1/10 the LD50, for 10 consecutive days.
At the end of the treatment protocol on day 30 after the last injection, the animals were anesthetized with ether, and blood samples were drawn from the orbital venous plexus. The serum was separated by centrifugation for 5 minutes at 1500 g, and stored at −20° C. until analyzed. This serum was used to determine the liver function by assaying the ALT, AST, and ALP activities and total bilirubin spectrophotometrically according to the manufacturer's instructions using reagent kits obtained from […]. Liver function was measured, comparing results for control rats with results in DENA-treated and in target compound-treated rats. The results were reported as mean±standard error of the mean (SE). Statistical significance was analyzed using a one-way analysis of variance (ANOVA) followed by the Student's t-test, while the differences were considered to be significant at p<0.05.

[12] = DENA/CCl4 rats treated IV at 1/10 LD50 for 10 days, day 30 after last injection
[13] = rats given DENA 200 mg/kg i.p. then CCl4, no target compound

SMILES: COc1ccc(-c2nn(-c3cccc(Cl)c3)cc2/C=C2\C(=N)N(c3ccccc3)N=C2N)cc1 [Compound 2, (4Z)-4-((1-(3-Chlorophenyl)-3-(4-methoxyphenyl)-1H-pyrazol-4-yl)methylene)-4,5-dihydro-5-imino-1-phenyl-1H-pyrazol-3-amine]
- Selectivity ratio, Ovarian [1]: 0.59
- GI50 ([1]; Homo sapiens, read-out: Median growth inhibitory concentration GI50, Ovarian): 6110 nM
- Selectivity ratio, Leukemia [2]: 5.86
- GI50 ([2]; Homo sapiens, read-out: Median growth inhibitory concentration GI50, Leukemia): 610 nM
- GI50 (60 human cell lines; 60 cell): 3590 nM
- Growth inhibition, one dose mean graph (60 human cell lines; single-dose of 10 μM, 60 cell lines): significant growth inhibition
- Selectivity ratio, Breast [3]: 1.68
- GI50 ([3]; Homo sapiens, read-out: Median growth inhibitory concentration GI50, Breast): 2130 nM
- Liver histology (H&E) of DENA-rats treated with target compound ([4]; listed as target): improvement in the hepatic pattern associated with normal hepatic architecture
- Liver histology (H&E) of DENA-rats treated with target compound ([4]; listed as target compound): normal hepatic architecture
- Median lethal dose (LD50) (Sprague-Dawley rats; single IV dose, mortality monitored up to 1 month): 195 μg/kg body weight
- Acute toxicity (in words) (Sprague-Dawley rats; single IV doses 0 to 1200 μg/kg): no marked acute toxicity
- Selectivity ratio, CNS [5]: 0.63
- GI50 ([5]; Homo sapiens, read-out: Median growth inhibitory concentration GI50, CNS): 5700 nM
- Selectivity ratio, Melanoma [6]: 1.27
- GI50 ([6]; Homo sapiens, read-out: Median growth inhibitory concentration GI50, Melanoma): 2830 nM
- Selectivity ratio, Colon [7]: 2.86
- GI50 ([7]; Homo sapiens, read-out: Median growth inhibitory concentration GI50, Colon): 1250 nM
- Selectivity ratio, Prostate [8]: 5.19
- GI50 ([8]; Homo sapiens, read-out: Median growth inhibitory concentration GI50, Prostate): 690 nM
- Selectivity ratio, Lung [9]: 0.49
- GI50 ([9]; Homo sapiens, read-out: Median growth inhibitory concentration GI50, Lung): 7390 nM
- Selectivity ratio, Renal [10]: 0.65
- GI50 ([10]; Homo sapiens, read-out: Median growth inhibitory concentration GI50, Renal): 5550 nM
- AST, ALT and ALP activities and total bilirubin level compared to DENA-treated rats (in words) ([11]; dose of 1/10 of the LD50): substantial normalization
- ALP [11, 12]: 124.00 ± 12.00^b U/L
- ALT [11, 12]: 49.00 ± 4.6^b U/L
- AST [11, 12]: 70.00 ± 7.2^b U/L
- Bili (total bilirubin) [11, 12]: 1.63 ± 0.16^b mg/dl

SMILES: CCN(CC)N=O [DENA, Diethylnitrosamine, reference compound]
- ALP [11, 13]: 215.00 ± 15.7^a U/L
- ALT [11, 13]: 95.00 ± 7.0^a U/L
- AST [11, 13]: 110.00 ± 7.8^a U/L
- Bili (total bilirubin) [11, 13]: 2.90 ± 0.20^a mg/dl

SMILES: CNC(=O)c1cc(Oc2ccc(NC(=O)Nc3ccc(Cl)c(C(F)(F)F)c3)cc2)ccn1 [Sorafenib, sorafenib, reference compound]
- GI50 (60 human cell lines; full panel, 60 cell lines): 1900 nM
